Data reported in US8748497B2, “Optimized fluorocarbon emulsions for blood substitutes and other therapeutic uses” (Alliance Pharmaceutical Corp., priority 2006, dated 2014).

Assay: intravascular persistence of PFOB and PFDB after 60/30% w/v PFOB/PFDB emulsion
Format: in vivo
Settings: rats
Source text: FIG. 4 represents typical data for the removal of both PFOB and PFDB. […] In general, the rate constant for PFDB removal is 20-30% less than that of PFOB.
The emulsion composition with the data shown in FIG. 4 contains a 60/30% (w/v) ratio of PFOB/PFDB stabilized by 6% w/v EYP. In this case, the rate constant for PFDB removal is 20% higher than that of PFOB. It might be assumed that in the first few hours after administration that the removal from blood is controlled by k12 (see FIG. 1). The fluorochemical composition of circulating emulsion droplets should, therefore, remain intact. How is it then that the two disperse phase components could have different rate constants? To answer this question, the composition of the intravenously administered droplets can be examined through the use of sedimentation field-flow fractionation (SdFFF) coupled with gas chromatography, thereby confirming the nature of the droplets.

- rate constant for removal, less than that of PFOB (in general): 20-30%
- rate constant for removal, higher than that of PFOB (in this case (FIG. 4), 60/30% w/v PFOB/PFDB, 6% w/v EYP): 20%
SMILES: FC(F)(F)C(F)(F)C(F)(F)C(F)(F)C(F)(F)C(F)(F)C(F)(F)C(F)(F)C(F)(F)C(F)(F)Br [PFDB, perfluorodecyl bromide]
